Patent publication US20130072430A1, “METHODS FOR TREATMENT OR PROPHYLAXIS OF KIDNEY OR LIVER DYSFUNCTION” (NPS PHARMACEUTICALS, INC., priority 2010, published 2013)

System: Human patients with short bowel syndrome
Assay: Example 3: change from baseline to week 24 in liver enzyme levels (ALP, ALT, AST, total bilirubin, GGTP) by responder status (reduced parenteral nutrition)
Format: in vivo
Details: 0.05 mg/kg/day
Description: In this example the data presented in Example 2 are analyzed to evaluate whether the beneficial effects of teduglutide on liver function tests are related to the reduction of parenteral nutrition volume.
Table 5 depicts the change in liver enzyme levels from baseline to week 24 in responders and non-responders. Responders are human patients with reduced parenteral nutrition, while non-responders are human patients without reduced parenteral nutrition. Human patients either received placebo or teduglutide at 0.05 mg/kg/day. Known biomarkers of liver function were monitored for 24 weeks. The liver biomarkers tested included ALP, ALT, AST, total bilirubin and GGTP.
Table 6 depicts the change in liver enzyme levels (ALP, ALT, AST, total bilirubin and GGTP), as presented in Table 5, and stratifies them by treatment group (placebo versus teduglutide at 0.05 mg/kg/day) and responder status (responder versus non-responder).

## CC[C@H](C)[C@H](NC(=O)[C@H](Cc1ccccc1)NC(=O)[C@H](CC(=O)O)NC(=O)[C@H](CCCNC(=N)N)NC(=O)[C@H](C)NC(=O)[C@H](C)NC(=O)[C@H](CC(C)C)NC(=O)[C@H](CC(N)=O)NC(=O)[C@H](CC(=O)O)NC(=O)[C@H](CC(C)C)NC(=O)[C@@H](NC(=O)[C@@H](NC(=O)[C@H](CC(N)=O)NC(=O)[C@H](CCSC)NC(=O)[C@H](CCC(=O)O)NC(=O)[C@H](CC(=O)O)NC(=O)[C@H](CO)NC(=O)[C@H](Cc1ccccc1)NC(=O)[C@H](CO)NC(=O)CNC(=O)[C@H](CC(=O)O)NC(=O)CNC(=O)[C@@H](N)Cc1c[nH]cn1)[C@@H](C)O)[C@@H](C)CC)C(=O)N[C@@H](CC(N)=O)C(=O)N[C@@H](Cc1c[nH]c2ccccc12)C(=O)N[C@@H](CC(C)C)C(=O)N[C@H](C(=O)N[C@@H](CCC(N)=O)C(=O)N[C@H](C(=O)N[C@@H](CCCCN)C(=O)N[C@H](C(=O)N[C@H](C(=O)N[C@@H](CC(=O)O)C(=O)O)[C@@H](C)O)[C@@H](C)CC)[C@@H](C)O)[C@@H](C)CC [teduglutide]
Baseline to week 24
  relation of effect on liver function tests to reduction of parenteral nutrition (responders vs non-responders): the major part of the effect is not mediated through the reduction of parenteral nutrition
Non-responder, n=11
  ALKALINE PHOSPHATASE change from Baseline to Week 24, Mean: −13.82 U/L
  ALKALINE PHOSPHATASE change from Baseline to Week 24, Median: −7 U/L
  ALT change from Baseline to Week 24, Mean: −3.82 U/L
  ALT change from Baseline to Week 24, Median: −3 U/L
  AST change from Baseline to Week 24, Mean: −2.18 U/L
  AST change from Baseline to Week 24, Median: −2 U/L
  BILIRUBIN, TOTAL change from Baseline to Week 24, Mean: -2.43 µmol/L
  BILIRUBIN, TOTAL change from Baseline to Week 24, Median: -1.7 µmol/L
  GGTP change from Baseline to Week 24, Mean: −1.91 U/L
  GGTP change from Baseline to Week 24, Median: 3 U/L
Responder, n=27
  ALKALINE PHOSPHATASE change from Baseline to Week 24, Mean: −35.52 U/L
  ALKALINE PHOSPHATASE change from Baseline to Week 24, Median: −34 U/L
  ALT change from Baseline to Week 24, Mean: −17.48 U/L
  ALT change from Baseline to Week 24, Median: −14 U/L
  AST change from Baseline to Week 24, Mean: −7.30 U/L
  AST change from Baseline to Week 24, Median: −7 U/L
  BILIRUBIN, TOTAL change from Baseline to Week 24, Mean: -4.19 µmol/L
  BILIRUBIN, TOTAL change from Baseline to Week 24, Median: -2.4 µmol/L
  GGTP change from Baseline to Week 24, Mean: −18.41 U/L
  GGTP change from Baseline to Week 24, Median: −10 U/L
Total, n=38
  ALKALINE PHOSPHATASE change from Baseline to Week 24, Mean: −29.24 U/L
  ALKALINE PHOSPHATASE change from Baseline to Week 24, Median: −24.5 U/L
  ALT change from Baseline to Week 24, Mean: −13.53 U/L
  ALT change from Baseline to Week 24, Median: −7.5 U/L
  AST change from Baseline to Week 24, Mean: −5.82 U/L
  AST change from Baseline to Week 24, Median: −5 U/L
  BILIRUBIN, TOTAL change from Baseline to Week 24, Mean: -3.68 µmol/L
  BILIRUBIN, TOTAL change from Baseline to Week 24, Median: -2.35 µmol/L
  GGTP change from Baseline to Week 24, Mean: −13.63 U/L
  GGTP change from Baseline to Week 24, Median: −6 U/L
By Treatment
  ALKALINE PHOSPHATASE change from Baseline to Week 24, LS Means: −24.67 U/L
  ALT change from Baseline to Week 24, LS Means: −10.65 U/L
  AST change from Baseline to Week 24, LS Means: −4.74 U/L
  BILIRUBIN, TOTAL change from Baseline to Week 24, LS Means: -3.31 µmol/L
  GGTP change from Baseline to Week 24, LS Means: −10.16 U/L
